The record followed here is patent US9655912B2, “Reduction of gastrointestinal tract colonisation by campylobacter” (priority 2012, dated 2017).

The subject of one assay is C. jejuni. In words: ELISA: inhibition of C. jejuni adherence to BgAgs (Core-I, Core-II, H-I, H-II, Leb, Ley, Lex) by Ferric Quinate. Type of assay: binding, Campylobacter jejuni. The following applies: for Inhibition of C. jejuni binding to BgAgs: 34 μM Fe(QA)3, pre-incubation and post-treatment, ELISA. How it is done:
The inhibitory potential of Ferric Quinate Fe(QA)3 on adherence of C. jejuni was analyzed by ELISA using BgAgs (Core-I, Core-II, H-I, H-II, Leb, Ley and Lex). C. jejuni was pre-incubated with 34 μM Fe(QA)3 and specific inhibition was also analyzed by post-treatment of C. jejuni with Fe(QA)3 which bound to BgAgs at the time.

The next assay concerns C. jejuni NCTC11168-O. The experiment in a line: Chicken caecal colonisation after oral challenge, Ferric Quinate as additive to water. Type of assay: in vivo. The following applies: 0.34 mM in water, 6-weeks old birds, 3 and 7 days post-challenge. How it is done: These inhibitory properties against C. jejuni adherence to BgAgs were analyzed in vivo. Ferric Quinate was used as an additive to water (0.034-0.34 mM) and as an inhibitor of C. jejuni NCTC11168 strain adherence to, and thus colonization, in the chicken intestinal tract. 6-weeks old birds (n=10 per group) were challenged with 3×10^3-5 cfu wild-type strain NCTC11168-O by oral gavage. Caecal colonisation levels were determined in birds from each group at 3 and 7 days post-challenge.

For assay [1], the system named is C. jejuni NCTC11168 strain. The experiment in a line: Growth of C. jejuni in culture medium supplemented with Fe(QA)3. Type of assay: cell-based, Campylobacter jejuni. The settings on record: 34 and 340 μM in culture medium. From the text: To further clarify the growth-effect properties of Fe(QA)3, we investigated the effect of adding Fe(QA)3 to the culture medium.

The subject of assay [2] is C. jejuni strain NCTC11168. The experiment in a line: Inhibition ELISA of binding of strain NCTC11168 to H-II glycoconjugate. The arrangement: species or system Campylobacter jejuni. The following applies: p<0.001, FIG. 2A. How it is done:
Purified MOMP from NCTC11168 (MOMP(+)), and pre-incubation of NCTC11168 bacterial cells with H-II glycoconjugate (H-II). […] B) ELISA plate was coated with a selection of BgAgs. Specific binding was calculated by subtracting the BSA (negative control) values from the BgAg absorbance at 405 nm. Strain NCTC11168 and Cj-266 (high binder strain, S3—Table 1), and corresponding ΔflaA mutants, have been examined for binding to Le^b, H-II, H-I, Le^x and Le^a. t-test confirmed the reduction in binding seen with mutants are significant (Le^b; p=2.5E-05, H-II; p=0.012, H-I; p=0.001, Le^x; p=0.029 and Le^a; p=0.000) in strain NCTC11168. However, Cj-266ΔflaA mutation had no effect on binding, which indicates the binding capacity was compensated by MOMP protein. Each group of bars from left to right: NCTC11168, 11168-ΔflaA, Cj-266, Cj-266ΔflaA. C) A double mutant (DM) of ΔflaA and single substitution of glycosylation site in MOMP protein (Thr^268 was substituted with Gly) was constructed in both strain NCTC11168 and Cj-266, and the binding to Le^b H-I and H-II was examined. […] Each group of bars from left to right: Leb, H-II, H-1.
Deletion mutant of ΔflaA in strains NCTC11168 and Cj-266 (a clinical isolate, S3—Table) were constructed.
In general terms: An ELISA detects its analyte on a solid surface through an enzyme-linked reagent.

Turning to `O=C(O)[C@]1(O)C[C@@H](O)[C@@H](O)[C@H](O)C1` [Quinic Acid, D-(−)-quinic acid, reference compound], the “Inhibition of C. jejuni binding to BgAgs” value with C. jejuni is listed as “no inhibition”.
For Ferric quinate [Fe(QA)3], the “Reduction of adhesion of C. jejuni to the intestinal mucosa (caecal colonisation)” value with C. jejuni NCTC11168-O is 2-3 Log. For the same molecule, the “Effect on growth of C. jejuni NCTC11168” value in assay [1] is given as “did not affect the growth”. The “Inhibition of C. jejuni binding to BgAgs” value in the assay with C. jejuni is 90%. Moreover, in the assay with C. jejuni (bacteria cultured on MH containing Fe(QA)3), the “Inhibition of microbial adherence, bacterial culture (MH) containing Fe(QA)3” value is reported as “reproducible inhibition”. Moreover, the “Resistance concerning the binding abilities after sequential passages” value with C. jejuni (sequential passages (P) of bacteria to new plate containing Fe(QA)3) is “didn't cause any resistance”.

B1: MOMP(+): major outer membrane protein purified under native conditions from C. jejuni strain NCTC11168 (protein)
chain: TPLEEAIKDVDVSGVLRYRYDTGNFDKNFVNNSNLNNSKQDHKYRAQVNFSAAIADNFKAFVQFDYNAADGGYGANGIKNDQKGLFVRQLYLTYTNEDVATSVIAGKQQLNLIWTDNAIDGLVGTGVKVVNNSIDGLTLAAFAVDSFMAAEQGADLLEHSNISTTSNQAPFKVDSVGNLYGAAAVGSYDLAGGQFNPQLWLAYWDQVAFFYAVDAAYSTTIFDGINWTLEGAYLGNSLDSELDDKTHANGNLFALKGSIEVNGWDASLGGLYYGDKEKASTVVIEDQGNLGSLLAGEEIFYTTGSRLNGDTGRNIFGYVTGGYTFNETVRVGADFVYGGTKTEAANHLGGGKKLEAVARVDYKYSPKLNFSAFYSYVNLDQGVNTNESADHSTVRLQALYKF
For the molecule B1, the “Bacterial binding to H-II antigen” value in assay [2] was “significantly reduced”; in assay [2] (listed as purified MOMP) it was “significantly inhibited”.
